Measured values: patent publication US20230140290A1, “SALICYLAMIDE DERIVATIVES AND RELATED METHODS OF MAKING” (THE BOARD OF REGENTS OF THE UNIVERSITY OF TEXAS SY, priority 2020, published 2023)
Where two headings read alike, the source gives them in different places.

What was measured:
A549 cells = test: Cytotoxicity assay (AlamarBlue); conditions: read-out: CC50 (μM), cytotoxic concentration 50%; A549 cell line, 48 h
Protocol: (§1) Cytotoxicity Assay. The cytotoxicity of the compounds was analyzed by commercial kit AlamarBlue® (Invitrogen, Ref. DAL1025). A549 cells at a density of 5×10^3 cells per well in 96-well plates were seeded. […] Cells were then incubated at 37° C. for 48 h following the kit protocol. The cytotoxic concentration 50 (CC50) value was obtained using the statistical package GraphPad Prism. This assay was performed in duplicate.

HAdV5-GFP = test: Time of addition assay; type: cell-based, HAdV-5; conditions: for inhibition at 0.78 µM: FIG. 10
Protocol: (§2) Time of Addition Curve Study. […] Parallel samples of HAdV-5 were incubated with or without the selected derivatives on ice for 1 h. […] The derivatives were added at the indicated time points before or during this incubation. After a total of 2 h at 37° C., cells were incubated for an additional 48 h at 37° C. and 5% CO2 before being analyzed for GFP expression using the Typhoon 9410 imager (GE Healthcare Life Sciences) as above.
as §2, with “Assay.” for “Curve Study.”
as §2, with “Assay.” for “Curve Study.”, “compounds” for “derivatives”, “Compounds 153 and 161” for “The derivatives”

HAdV5 = test: HAdV-mediated endosome disruption (α-sarcin co-delivery assay); type: cell-based, HAdV-5; conditions: FIG. 11; virus below 12 ng; similar to ts1 mutant
HAdV-5 = test: Thermostability assay (HAdV capsid uncoating); type: cell-based; conditions: FIG. 12; 50 μM, 24 h post-infection
Description: The studies described above delineate the step of infection that is targeted by 161; however, the precise molecular mechanism involved in its antiviral activity remained to be established. One alternative mode of action was that 161 could block HAdV-mediated lysis of the endosome by stabilizing the virus capsid, thereby preventing uncoating. Indeed, human defensins and neutralizing antibodies have been previously shown to act through this mechanism (Smith et al., Cell Host Microbe, 2008, 3, 11-19). To determine whether 161 impacts HAdV uncoating, we used a thermostability assay that mimics virus disassembly in the endosome, which was previously described by Wiethoff et al., (Wiethoff et al., J. Virol. 2005, 79, 1992-2000), with a few modifications. In this assay, temperatures above 48° C. promote selective removal of the virus vertex region. HAdV-5 was incubated with or without 50 μM concentrations of 161 at temperatures from 37° C. to 52° C. and then added to cells to evaluate the viability of the viruses. […] Upon heating HAdV-5 to 48° C. or above, in those non-treated with compound 161, there was no GFP expression 24 h post-infection.

HCMV = HCMV DNA quantification by real-time PCR; type: cell-based, human cytomegalovirus; conditions: HFF cells, 72 h, 10-fold plaque IC50 (niclosamide 5 μM)
Protocol: HCMV DNA Quantification by Real-Time PCR. […] Then, cells were incubated for 72 h at 37° C. and 5% CO2 and HCMV DNA was purified from the cell lysate using the QIAamp DNA Mini Kit (Qiagen, Valencia, Calif.) following the manufacturer's instructions. Real-time PCR primers, mixtures and protocols were the same as previously reported (Sanchez-Cespedes et al., J. Med. Chem. 2016, 59, 5432-5448).

[1] = Maximum tolerated dose (MTD); conditions: female, Syrian, hamster, in vivo, ip
Protocol: Maximum tolerated dose (MTD). […] Before dosing, compounds were diluted in 10% DMSO, 10% Cremophor EL and 80% sodium chloride physiological solution. […] At day 14 animals were sacrificed with a lethal dose of thiopental. All inoculations were done via intraperitoneal.

HAdV = test: Combination study (Chou-Talalay, CalcuSyn) in plaque assay; type: cell-based
Description: Synergistic Activity of Selected Derivatives. […] To assess this hypothesis, we conducted a combination study based on the Chou-Talalay method for drug combination using the CalcuSyn software (Chou, and Talalay, Adv. Enzyme Regul. 1984, 22, 27-55; Matthews et al., PLoS One. 2017, 12, e0173303) using those compounds with lower IC50 in the plaque assay and higher SI, compound 87 from this work and compounds 17 (JMX0312), 58 (JMX0281) from our first library of derivatives. The constant ratio for each combination was selected based on the IC50 values for each drug.
Synergistic Activity of Selected Compounds. […] To evaluate, a combination study was conducted based on the Chou-Talalay method for drug combination using the CalcuSyn software. The constant ration for each combination was selected based on the IC50 values for each drug.

[2] = Cytotoxicity assay (AlamarBlue); conditions: human, A549 cells
Protocol: as §1

[3] = combination 17 & 87 (1:1.5), read-out: IC50 combination
[4] = combination 87 & 58 (1:1.7), read-out: IC50 combination
[5] = derivative alone, read-out: IC50 Single
[6] = 0 h, FIG. 2, read-out: inhibition of HAdV infection after addition at the moment of the infection (0 min)
[7] = combination 17 & 58 (1:2.5), read-out: IC50 combination

| SMILES | CC50 (A549 cells) | MTD at 14 days [1] | IC50 (HAdV; [3]) | IC50 (HAdV; [4]) | IC50 (HAdV; [5]) | CC50 at 48 h [2] | inhibition at 10 µM (HAdV5-GFP; [6]) | IC50 (HAdV; [7]) | further results |
| --- | --- | --- | --- | --- | --- | --- | --- | --- | --- |
| O=C(N[C@H](Cc1ccccc1)C(=O)Nc1ccc([N+](=O)[O-])cc1Cl)c1cc(Cl)ccc1O [Compound 60, (R)-5-Chloro-N-(1-((2-chloro-4-nitrophenyl)amino)-1-oxo-3-phenylpropan-2-yl)-2-hydroxybenzamide] | 77.9 µM | – | – | – | – | – | – | – | inhibition at 10 µM (HAdV5-GFP; 20 min, read-out: inhibition of HAdV infection when added after 20 min p.i., FIG. 2): < 50% |
| O=C(NCC1CCCCC1)c1cc(Cl)ccc1O [Compound 161, 5-Chloro-N-(cyclohexylmethyl)-2-hydroxybenzamide] | – | – | – | – | – | – | – | – | inhibition at 0.78 µM (HAdV5-GFP; 0 h, read-out: inhibitory activity at 0 min post-infection): 95.3%; inhibition at 0.78 µM (HAdV5-GFP; 20 min, read-out: inhibitory activity at 20 min p.i.): 30.7%; HAdV-mediated endosome lysis (HAdV5): prevented HAdV-mediated endosome lysis; GFP expression of viruses heated to 48° C. (HAdV-5): significant levels of GFP expression; GFP expression of viruses heated to 52° C. (HAdV-5): some residual expression |
| CC1(Nc2ccc(NC(=O)c3cc(Cl)ccc3O)c(Cl)c2)CCCC1 [Compound 87, 5-Chloro-N-(2-chloro-4-((1-methylcyclopentyl)amino)phenyl)-2-hydroxybenzamide] | 157 µM | 150 mg/kg | 140 nM | 300 ± 20 nM | 270 ± 160 nM | – | – | – | decrease of total HCMV DNA compared to the DMSO control (HCMV): no significant inhibition |
| O=C(Nc1cc(F)cc(C(F)(F)F)c1)c1cc(Cl)ccc1O [Compound 17, 5-Chloro-N-(3-fluoro-5-(trifluoromethyl)phenyl)-2-hydroxybenzamide] | – | 12.5 mg/kg | 90 nM | – | 180 ± 10 nM | 120000 ± 33600 nM | < 50% | 100 ± 10 nM | – |
| O=C(Nc1ccc([N+](=O)[O-])cc1F)c1cc(Cl)ccc1O [Compound 11, 5-Chloro-N-(2-fluoro-4-nitrophenyl)-2-hydroxybenzamide] | 10.9 µM | – | – | – | – | – | – | – | loss of inhibition when added between 20 and 40 p.i. (HAdV5-GFP; FIG. 2, 5 μM): 34% |
| CC(C)[C@H](NC(=O)c1cc(Cl)ccc1O)C(=O)Nc1ccc([N+](=O)[O-])cc1Cl [Compound 58, (S)-5-Chloro-N-(1-((2-chloro-4-nitrophenyl)amino)-3-methyl-1-oxobutan-2-yl)-2-hydroxybenzamide] | – | 50 mg/kg | – | 500 ± 40 nM | 450 ± 60 nM | 200000 nM | < 50% | 250 ± 20 nM | – |
